Source: PubChem BioAssay (NCI)
Where “and” joins values, the source holds several entries; their conditions need not be identical. Equal values may be shown once.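 48-hour exposure; five concentrations; linearly interpolated endpoints. GI50 = concentration required for 50% inhibition of growth. The concentration for full growth arrest is given as TGI.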

Experiments:
Assay in all cases: inhibition of tumour cell growth, NCI panel, 48 h
DU-145 prostate = test system: DU-145 prostate
EKVX NSCLC = test system: EKVX NSCLC
M14 melanoma = test system: M14 melanoma
OVCAR-4 ovarian = test system: OVCAR-4 ovarian
OVCAR-5 ovarian = test system: OVCAR-5 ovarian
OVCAR-8 ovarian = test system: OVCAR-8 ovarian
SNB-19 CNS = test system: SNB-19 CNS
T-47D breast = test system: T-47D breast
UACC-62 melanoma = test system: UACC-62 melanoma
UO-31 renal = test system: UO-31 renal

Structure (SMILES)	GI50 (DU-145 prostate)	TGI (DU-145 prostate)	GI50 (EKVX NSCLC)	TGI (EKVX NSCLC)	GI50 (M14 melanoma)	TGI (M14 melanoma)	GI50 (OVCAR-4 ovarian)	TGI (OVCAR-4 ovarian)	GI50 (OVCAR-5 ovarian)	TGI (OVCAR-5 ovarian)	GI50 (OVCAR-8 ovarian)	TGI (OVCAR-8 ovarian)	GI50 (SNB-19 CNS)	TGI (SNB-19 CNS)	GI50 (T-47D breast)	TGI (T-47D breast)	GI50 (UACC-62 melanoma)	TGI (UACC-62 melanoma)	GI50 (UO-31 renal)	TGI (UO-31 renal)
COc1cc(/C=C/C(=O)C(C(=O)/C=C/c2ccc(OC(=O)CCNc3nnc(C)s3)c(OC)c2)C(=O)CCNc2nnc(C)s2)ccc1OC(=O)CCNc1nnc(C)s1	2.27 µM	5.61 µM	3.8 µM	14.8 µM	3.11 µM	11 µM	4.76 µM	> 61.5 µM	2.89 µM	7.12 µM	2.93 µM	16.7 µM	4.79 µM	18.3 µM	4.14 µM	> 47.5 µM	1.73 µM	3.57 µM	1.62 µM	3.67 µM
Cc1[nH]n(-c2ccc(S(=O)(=O)O)cc2)c(=O)c1N=Nc1ccccc1	–	> 100 µM	–	> 100 µM	–	> 100 µM	–	> 100 µM	–	> 100 µM	–	> 100 µM	–	> 100 µM	–	> 100 µM	–	> 100 µM	–	> 100 µM
O=C1Nc2ccccc2/C1=C/c1cn(C(=O)c2c(Cl)cccc2Cl)c2ccccc12	2.72 µM	9.24 µM	2.83 µM	16.3 µM	2.34 µM	8.19 µM	–	–	8.85 µM	50.1 µM	4.12 µM	37.4 µM	7.32 µM	> 100 µM	4.13 µM	93 µM	4.8 µM	19.9 µM	1.14 µM	7.5 µM
CNc1cccnc1/C=N/NC(N)=S	–	3.89 µM	–	> 10 µM	–	3.94 µM	–	> 10 µM	–	9.78 µM	–	> 10 µM	–	> 10 µM	–	> 10 µM	–	3.07 µM	–	4.5 µM
Nc1nc(Cl)c(N=Nc2ccc(Cl)cc2)c(NCC2(CO)CC(OCc3ccccc3)C2)n1 (configuration not stated)	6.16 µM and 14.6 µM and 4.62 µM	92.2 µM and > 100 µM and 26.5 µM	2.37 µM and 11 µM and 3.08 µM	–	–	> 100 µM and 18.7 µM	2.25 µM and 15.9 µM and 3.65 µM	–	13.4 µM and > 100 µM and 12 µM	> 100 µM and 30.2 µM	3.69 µM and 16.1 µM and 4.39 µM	16.3 µM and > 100 µM and 23.9 µM	26.7 µM and > 100 µM and 18.3 µM	> 100 µM and 47.6 µM	8.73 µM	73.1 µM and > 100 µM and > 77.2 µM	–	55.2 µM and > 100 µM and 25.1 µM	3.27 µM	12.5 µM and 6.43 µM
CC(=O)c1c(O)ccc2c(C)c(C(=O)O)oc12	> 100 µM	> 100 µM	> 100 µM	> 100 µM	> 100 µM	> 100 µM	> 100 µM	> 100 µM	> 100 µM	> 100 µM	> 100 µM	> 100 µM	> 100 µM	> 100 µM	> 100 µM	> 100 µM	80.4 µM	> 100 µM	> 100 µM	> 100 µM
COc1ccc(Cn2cc3c(c2-c2ccc(O)cc2)CCc2cnoc2-3)cc1	0.365 µM	5.14 µM	0.438 µM	26.9 µM	0.325 µM	16.5 µM	1.76 µM	19.6 µM	0.829 µM	21.6 µM	0.633 µM	23.6 µM	0.586 µM	17.1 µM	0.377 µM	23.7 µM	0.54 µM	17.6 µM	0.653 µM	18.7 µM
CCN(CC)CCCNc1nc2ccccc2c2c(=O)c3cc(Cl)ccc3sc12	2.01 µM	4.13 µM	3.74 µM	17.3 µM	1.94 µM	3.81 µM	4.68 µM	22.7 µM	2.25 µM	6.29 µM	3.26 µM	15.7 µM	6.81 µM	20.4 µM	3.85 µM	27.7 µM	1.76 µM	3.39 µM	1.79 µM	9.97 µM
CC(C)=CC(O)C/C(C)=C/CC/C(C)=C/CCC1(C)C(CCCO)/C(=C(/C)C=O)CCC1(C)O (configuration not stated)	–	> 100 µM	–	> 100 µM	–	60.9 µM	–	> 100 µM	–	> 100 µM	–	> 100 µM	–	> 100 µM	–	> 100 µM	–	> 100 µM	–	> 100 µM
O=C1c2cccc3cccc(c23)C(=O)N1CCCCN1CCN(CCCCOc2ccc(-c3nc4ccc(N5CCOCC5)cc4[nH]3)cc2)CC1	> 100 µM	> 100 µM	> 100 µM	> 100 µM	> 100 µM	> 100 µM	> 100 µM	> 100 µM	> 100 µM	> 100 µM	8.8 µM	> 100 µM	> 100 µM	> 100 µM	15.3 µM	> 100 µM	> 100 µM	> 100 µM	> 100 µM	> 100 µM
Cc1ccc(NSc2ccccc2[N+](=O)[O-])cc1	0.984 µM	15.3 µM	2.89 µM	22.4 µM	0.146 µM	15.3 µM	6.26 µM	23.2 µM	3.42 µM	20.9 µM	2.91 µM	36.3 µM	1.22 µM	19.6 µM	0.444 µM	40.4 µM	0.157 µM	17 µM	2.07 µM	16 µM
CCCCCCCCCCCCSC(=NC)NC	3.12 µM	12.3 µM	3.71 µM	17.6 µM	–	–	2.16 µM	5.61 µM	1.83 µM	4.16 µM	2.88 µM	> 100 µM	3.06 µM	17.6 µM	2.04 µM	4.77 µM	1.68 µM	3.21 µM	2.11 µM	5.64 µM
O=C1Nc2ccccc2/C1=C/c1ccccc1	–	27.4 µM	–	28.8 µM	–	30.6 µM	–	83 µM	–	34.5 µM	–	66.1 µM	–	30 µM	–	41.9 µM	–	30.7 µM	–	25.3 µM
COc1cc2c3c(n(CCCNC(=O)OCC4c5ccccc5-c5ccccc54)c(=O)c2cc1OC)-c1cc2c(cc1C3=O)OCO2	> 100 µM	> 100 µM	> 100 µM	> 100 µM	36.8 µM	> 100 µM	> 100 µM	> 100 µM	> 100 µM	> 100 µM	> 93.6 µM	> 100 µM	> 76.4 µM	> 100 µM	> 100 µM	> 100 µM	33.4 µM	> 61.2 µM	> 100 µM	> 100 µM
